Assay results reported in a melting point compilation (Tetko et al.; mined from patent text by program, amines drawn as free bases though some values may be those of a salt).

| melting point [°C] | Structure (SMILES) |
| --- | --- |
| 198 to 215 | CCc1ccc2sc3cc(C#N)ccc3c(=O)c2c1 |
| 49 to 51 | NC(=O)c1nnn(Cc2ccccc2F)c1C(N)=O |
| 123 to 125 | CNS(=O)(=O)CCc1ccc2[nH]cc(CC(=O)O)c2c1 |
| 209 to 212 | Fc1cc(OC2CCOCC2)c2c(Nc3c(Cl)ccc4c3OCO4)ncnc2c1 |
| 98 to 99 | O=C(CCCO)NCC1c2ccccc2CCc2ccccc21 |
| 137 to 138 | N#CCCNC(=O)c1cccc(-c2cccc3sc(Cc4cccc(C(F)(F)F)c4)cc23)c1 |
| 142 to 145 | CC(=O)Oc1ccc2c(c1)cc(C(=O)O)n2C(C)=O |
| 137 to 138 | Cc1c(C)c(N2CCN(c3ccc(F)cc3)CC2)c(C)c2c1OC(C)C2 (stereo not drawn) |
| 248 | CCOC(=O)CCC(=O)Nc1n[nH]c2cc(C(F)(F)F)ccc12 |
| 144 to 145 | CC(Oc1ncn(-c2ccc(Br)cc2)n1)C(=O)N1CCCC1 (stereo not drawn) |
| 188 to 191 | Cc1c(-c2ccc(Cl)c(Cl)c2)n(-c2ccccc2)c(-c2ccccc2)cc1=O |
| 64 to 72 | CCN(CC)c1ccc2c(c1)Oc1cc(OC(C)=O)c3ccccc3c1N2C(C)=O |
| 125 to 127 | O=C1OCCC12Sc1ccccc1C2=O (stereo not drawn) |
| 204 to 205 | CCOCc1nc2c(N)nc3ccccc3c2n1Cc1ccccc1 |
| 252 to 254 | COc1ccc(-c2nnc3c4ccccc4c(OCCO)nn23)cc1 |
| 95 to 97 | O=C(CN1CCOCC1)NC(c1ccccc1)C1(c2ccc(Cl)cc2)CCC1 (stereo not drawn) |
| 117 to 119 | CCCc1nc(C=O)c(C(=O)OCC)n1Cc1ccc(-c2ccccc2C(=O)OC(C)(C)C)cc1 |
| 103 to 104 | Cc1nc(-c2cc(Cc3ccccc3)no2)sc1C(=O)NCc1ccccc1 |
| 186 | O=C(O)CCCCCCCn1c(-c2cc(I)c(O)c(I)c2)nc(-c2ccccc2)c1-c1ccccc1 |
| 150 to 151 | CCC(=CC(CNC(=O)c1ccc(C)nc1)=NO)C(C)[N+](=O)[O-] (stereo not drawn) |
| 198 to 199 | CC(C)OCc1nc2nccnc2c(=O)[nH]1 |
| 90 | C=CCOc1ccccc1NS(C)(=O)=O |
| 162 to 166 | O=C(NCCCn1ccnc1)c1ccccc1NS(=O)(=O)c1ccc(I)cc1 |
| 86 to 88 | COc1cc(N)c(SCc2ccccc2)cc1OC |

| melting point [°C] | Structure (SMILES) |
| --- | --- |
| 112 | CCOC(=O)CCCCOc1ccc([N+](=O)[O-])c(/C=C2\CC(=O)NC2=O)c1 |
| 91 to 92 | CN(C)c1ccc(/C=C/c2c(F)ccc(F)c2F)cc1 |
| 178 to 180 | Cc1ccccc1C(CCC(=O)O)Oc1cc(OCc2ccsc2)ccc1C(=O)NC(Cc1ccccc1)C(=O)O (stereo not drawn) |
| 211 to 212 | O=C(O)Cn1c(=O)c2cc(Cl)ccc2n(Cc2ccc(F)cc2)c1=O |
| 78 to 81 | CC(C)CC(NC(=O)C(CS)CC(F)(F)F)C(=O)O (stereo not drawn) |
| 190 | COC(=O)c1ccc(NC(=O)C(CC(=O)O)c2ccccc2)cc1 (stereo not drawn) |
| 133 | CCOC(=O)C(C)Oc1ccc2ccc(Oc3cc(-n4c(=O)cc(C(F)(F)F)n(C)c4=O)c(F)cc3C#N)cc2c1 (stereo not drawn) |
| 135 to 137 | O=C(O)CCCC(=O)c1cccc([N+](=O)[O-])c1 |
| 120 to 121 | O=[N+]([O-])c1cn2c(n1)O[C@@H](COc1ccc(N3CCC(Nc4ccc(Oc5ccc(OC(F)(F)F)cc5)cc4)CC3)cc1)CC2 |
| 193 to 195 | COc1ccc(C(=O)Nc2ccc(C(C)(C)C(N)=O)cc2)cc1OC |
| 187 to 188 | CNS(=O)(=O)c1cc2c(c(C(=O)NCC3CCN(C)C3)c1)OCCO2 (stereo not drawn) |
| 70.5 | CCCCCCCCCCCCOC(C)c1ccc(-c2ccc(C(=O)O)cc2)cc1 (single isomer, unassigned; (+)) |
| 175 to 177 | C[C@H](CNc1nc(Cl)nc2c1ncn2[C@@H]1O[C@H](CO)[C@@H](O)[C@H]1O)Oc1ccccc1 |
| 235 to 240 | CSc1ccc2ccc3c(SC)cc(SC)c4ccc1c2c34 |
| 233 | Cc1ccc(OC2SCC(O)C(O)C2O)cn1 (stereo not drawn) |
| 89 to 90 | CC(C)COC(=O)N[C@@H](CC(C)C)C(=O)N[C@@H](Cc1ccccc1)C(=O)CSCc1ccco1 |
| 105 to 107 | CC(C)ON=Cc1cc(-n2c(=O)cc(C(F)(F)F)n(C)c2=O)ccc1Cl |
| 222 to 223 | COc1cc(Nc2nc3cccc(-c4ccc(C#N)cc4)c3o2)cc(OC)c1OC |
| 158 to 160 | NC(=O)CCCCC1OCC(c2cccc3ccccc23)CO1 (stereo not drawn) |
| 72 to 89 | CC(C)CCCC(C)NC(=O)CCC(O)c1ccccc1 (stereo not drawn) |
| 214 | COc1cc(Nc2nccc(Nc3ccc(N4CCOCC4)cc3)n2)cc(OC)c1OC |
| 108 to 110 | C#CCN(C(=O)CCl)c1c(C)nc(N(C)C)nc1C |
| 224 to 226 | CC(=O)Nc1cc(I)ccc1Sc1ccc([N+](=O)[O-])cc1[N+](=O)[O-] |
| 78.5 to 80.5 | Cn1cnc(C2C(Cl)=CC=CC2(F)Cc2ccc(Cl)cc2)n1 (stereo not drawn) |

| melting point [°C] | Structure (SMILES) |
| --- | --- |
| 229 to 230 | COc1cc2c(cc1OC)=C1C(C#N)SC(=N)N1CC=2 (stereo not drawn) |
| 93 | CC1C(=O)N(c2ccccc2OCCCCBr)Sc2ccccc21 (stereo not drawn) |
| 48 to 53 | COC(=O)C1OC(c2cc(-c3ncc(C(F)(F)F)cc3Cl)ccc2Cl)OC1C(=O)OC (stereo not drawn) |
| 138 to 139 | Clc1ccnc(-n2ccnc2)n1 |
| 203 to 205 | COc1cc(NC(=O)c2ccccn2)ccc1Oc1ncccn1 |
| 88.1 to 92.2 | CCN1C(=O)C(C)(C)C(=O)N(C)c2cc(OCCCN(CCc3cccnc3)C(=O)c3ccncc3)ccc21 |
| 222 | c1ccc(CN2CCC(Cc3nc4ccccc4[nH]3)CC2)cc1 |
| 161 to 162 | CCCCCCCCCCCCCC(=O)Nc1ccc(Cl)c(NC2=NN(c3c(Cl)cc(Cl)cc3Cl)C(=O)C2SCCc2ccccc2)c1 (stereo not drawn) |
| 127 to 129 | O=C(O)c1cc(Cl)cc(OCc2ccccc2)c1 |
| 200 to 203 | CCOC(=O)c1cnc2sc(S(=O)(=O)Cc3ccccc3)nn2c1=O |
| 67 to 72 | O=[N+]([O-])c1c(O)c(Cl)cc(F)c1-c1ncc(C(F)(F)F)cc1Cl |
| 104 to 110 | O=C(c1ccccc1)c1cc2c(cc1O)C(CO)(C(=O)O)CC2 (stereo not drawn) |
| 90 to 92 | CC(=O)OCCC1CC2=C(O1)C(C)=CC(C)(O)C2C (racemic) |
| 135 to 140 | N#Cc1cc(F)c(O)nc1O |
| 225 to 227 | CCCCc1nc2ccccc2n1Cc1ccc(-c2ccccc2C(=O)O)cc1 |
| 114 to 116 | Cc1cc(SCN2C(=O)c3ccccc3C2=O)cc(C(C)(C)C)c1O |
| 63 to 64 | CCCCCCCCn1c2cc(OC)ccc2c2ccc(OC)cc21 |
| 284 to 286 | O=C1N=C(N2CCCCCCC2)SC1=Cc1cccc(-c2ccc(O)c(C34CC5CC(CC(C5)C3)C4)c2)c1 |
| 158 to 159 | COc1ccc(-c2ccccc2NC(N)=S)cc1 |
| 215 to 216 | O=C(Nc1ccn(C(=O)c2ccccc2)c(=O)n1)c1ccccc1 |
| 220 to 223 | Cc1c(CON2C(=O)c3ccccc3C2=O)ncn1C(c1ccccc1)(c1ccccc1)c1ccccc1 |
| 137 to 138 | O=C(Nc1ccc(CN2CCCCC2)cc1)c1cccc(OCc2ccccc2)c1 |
| 172 to 174 | O=[N+]([O-])c1c[nH]nc1-c1ccc(Cl)cc1 |
| 205 to 207 | CC(=NNc1nc(Cl)c(-c2c(F)cc(F)cc2F)c(NC(C)C(F)(F)F)n1)C(F)(F)F (stereo not drawn) |

| melting point [°C] | Structure (SMILES) |
| --- | --- |
| 116 | O=C(Nc1ccccc1S(=O)(=O)c1ccccc1)N[C@@H](Cc1ccc(NCc2c(Cl)cccc2Cl)cc1)C(=O)O |
| 225 to 226 | CNC(=O)c1ccn2nc(-c3ccccc3)c(-c3ccc(=O)n(C(C)C)n3)c2c1 |
| 130 to 132 | CC(C(=O)O)c1ccc2c(c1)CC(=O)c1ccccc1S2 (stereo not drawn) |
| 81 to 82 | CCc1c(Oc2ccc(C(F)(F)F)cc2[N+](=O)[O-])nn(C(=O)NC)c1C |
| 232 to 233 | CC1CC(=O)NN=C1c1ccc(N2CCN(c3ncccn3)CC2)c([N+](=O)[O-])c1 (stereo not drawn) |
| 260 to 262 | CC(CO)COc1ccc(C#Cc2ccc(C(=O)O)cc2)cc1C12CC3CC(CC(C3)C1)C2 (stereo not drawn) |
| 215 to 217 | CCOC(=O)CC1(S(N)(=O)=O)c2cc(F)ccc2-c2ccc(F)cc21 |
| 196 to 197 | Cc1cc2c(Cl)cc(F)c(-n3c(=O)cc(C(F)(F)F)n(C)c3=O)c2o1 |
| 333 to 334 | COc1cc2nc(N3CCN(c4ccnc(N(C)C5CCCC5)n4)CC3)nc(N)c2cc1OC |
| 129 to 132 | COCCCNc1ccc(S(N)(=O)=O)cn1 |
| 138 | Cn1nc(-c2cc(C=O)c(Cl)cc2Cl)c(Cl)c1OC(F)F |
| 172 to 173 | Cc1ccc2c(c1)CC(=O)N2c1c(F)cc(F)c(F)c1F |
| 83 to 84 | CC(=O)NCCCCC1Cc2ccccc2C1 |
| 116 | Cc1cc(CNC(=O)c2cc(-c3ccc(C(C)(C)C)cc3)nn2CC(=O)c2ccccc2)ccc1OC(C)(C)C(=O)O |
| 132 to 134 | C=CCCC(=O)N1CCc2nnc(NN)cc2C1 |
| 180 to 184 | COCCC(O)c1cc2c(=O)n(NS(C)(=O)=O)c(=O)[nH]c2cc1C(F)(F)F (stereo not drawn) |
| 200 to 203 | COC(=O)C(C)Oc1ccccc1S(=O)(=O)NC(=O)Nc1nc(C)cc(C)n1 (stereo not drawn) |
| > 300 | Cc1oc2cc(O)ccc2c(=O)c1C#N |
| 228 to 230 | N#Cc1cnc2cc(-c3csc(CN4CCOCC4)c3)ccc2c1Nc1ccc(Cc2ccccc2)cc1 |
| > 250 | COc1cc2c(Nc3ccc(Cl)cc3F)ncnc2cc1OCCCn1ccc(=O)cc1 |
| 109 to 113 | COc1ccc(CSc2ccncc2)c2c1OC(C)(C)C2 |

| Structure (SMILES) | melting point [°C] |
| --- | --- |
| CN(C)C=CC=C(C#N)c1cccnc1 | 117 to 120 |
| CN(C)CCc1c[nH]c2ccc(Oc3ccc(Br)cc3)cc12 | 160 to 162 |
| CCCc1nc(SC)c(C(O)(C(=O)O)c2ccccc2)n1Cc1ccc(-c2ccccc2S(=O)(=O)NC(=O)NCc2ccccc2)cc1 (stereo not drawn) | 170 |
| O=[N+]([O-])c1ccccc1Cc1ncc[nH]1 | 155 to 157 |
| CC1(C)OCCN1C(=O)C(Cl)Cl | 113 to 115 |
